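GI50: concentration for 50% inhibition of growth. TGI: total growth inhibition.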
Columns and labels:
Test in all cases: NCI-60 cell line screen, 384-well format
PC-3 prostate = tested on: PC-3 prostate
786-0 renal = tested on: 786-0 renal
SF-295 CNS = tested on: SF-295 CNS
SNB-19 CNS = tested on: SNB-19 CNS
SF-268 CNS = tested on: SF-268 CNS
SK-MEL-5 melanoma = tested on: SK-MEL-5 melanoma
OVCAR-5 ovarian = tested on: OVCAR-5 ovarian
HCC-2998 colon = tested on: HCC-2998 colon
SN12C renal = tested on: SN12C renal
NCI-H226 lung = tested on: NCI-H226 lung
UACC-62 melanoma = tested on: UACC-62 melanoma
MDA-MB-435 melanoma = tested on: MDA-MB-435 melanoma
ACHN renal = tested on: ACHN renal
LOX IMVI melanoma = tested on: LOX IMVI melanoma
SR leukemia = tested on: SR leukemia
RPMI-8226 leukemia = tested on: RPMI-8226 leukemia
COLO 205 colon = tested on: COLO 205 colon
IGROV1 ovarian = tested on: IGROV1 ovarian
SNB-75 CNS = tested on: SNB-75 CNS
NCI-H322M lung = tested on: NCI-H322M lung
OVCAR-4 ovarian = tested on: OVCAR-4 ovarian
UACC-257 melanoma = tested on: UACC-257 melanoma
SK-MEL-2 melanoma = tested on: SK-MEL-2 melanoma
A498 renal = tested on: A498 renal
SW-620 colon = tested on: SW-620 colon
OVCAR-8 ovarian = tested on: OVCAR-8 ovarian
NCI-H522 lung = tested on: NCI-H522 lung
K-562 leukemia = tested on: K-562 leukemia
TK-10 renal = tested on: TK-10 renal
SF-539 CNS = tested on: SF-539 CNS
DU-145 prostate = tested on: DU-145 prostate
U251 glioblastoma = tested on: U251 glioblastoma
UO-31 renal = tested on: UO-31 renal
KM12 colon = tested on: KM12 colon
MALME-3M melanoma = tested on: MALME-3M melanoma
MDA-MB-468 breast = tested on: MDA-MB-468 breast
EKVX NSCLC = tested on: EKVX NSCLC
HOP-92 NSCLC = tested on: HOP-92 NSCLC
SK-OV-3 ovarian = tested on: SK-OV-3 ovarian
OVCAR-3 ovarian = tested on: OVCAR-3 ovarian
MOLT-4 leukemia = tested on: MOLT-4 leukemia
HOP-62 NSCLC = tested on: HOP-62 NSCLC
NCI/ADR-RES ovarian = tested on: NCI/ADR-RES ovarian
T-47D breast = tested on: T-47D breast
NCI-H460 NSCLC = tested on: NCI-H460 NSCLC
HCT-116 colon = tested on: HCT-116 colon
SK-MEL-28 melanoma = tested on: SK-MEL-28 melanoma
NCI-H23 lung = tested on: NCI-H23 lung
BT-549 breast = tested on: BT-549 breast
MCF7 breast = tested on: MCF7 breast
HT29 colon = tested on: HT29 colon
CAKI-1 renal = tested on: CAKI-1 renal
HL-60(TB) leukemia = tested on: HL-60(TB) leukemia
HCT-15 colon = tested on: HCT-15 colon
A549 NSCLC = tested on: A549 NSCLC
MDA-MB-231 breast = tested on: MDA-MB-231 breast
M14 melanoma = tested on: M14 melanoma
CCRF-CEM leukemia = tested on: CCRF-CEM leukemia
RXF 393 renal = tested on: RXF 393 renal

Structure (SMILES): C=CC(=O)Nc1cc(N2CCN(CC)CC2)ccc1Nc1cc(N(C)C(=O)Nc2c(Cl)c(OC)cc(OC)c2Cl)ncn1
- GI50 (PC-3 prostate): 1810 nM
- TGI (PC-3 prostate): 3270 nM
- GI50 ([…]-0 renal): 1710 nM
- TGI (786-0 renal): 3140 nM
- GI50 (SF-295 CNS): 15800 nM
- TGI (SF-295 CNS): 29400 nM
- GI50 (SNB-19 CNS): 2890 nM
- TGI (SNB-19 CNS): 7710 nM
- GI50 (SF-268 CNS): 1880 nM
- TGI (SF-268 CNS): 3960 nM
- GI50 (SK-MEL-5 melanoma): 1800 nM
- TGI (SK-MEL-5 melanoma): 3430 nM
- GI50 (OVCAR-5 ovarian): 7010 nM
- TGI (OVCAR-5 ovarian): 19000 nM
- GI50 (HCC-2998 colon): 1700 nM
- TGI (HCC-2998 colon): 3080 nM
- GI50 (SN12C renal): 2010 nM
- TGI (SN12C renal): 3740 nM
- GI50 (NCI-H226 lung): 1840 nM
- TGI (NCI-H226 lung): 4390 nM
- GI50 (UACC-62 melanoma): 1560 nM
- TGI (UACC-62 melanoma): 3030 nM
- GI50 (MDA-MB-435 melanoma): 2560 nM
- TGI (MDA-MB-435 melanoma): 5840 nM
- GI50 (ACHN renal): 4550 nM
- TGI (ACHN renal): 10700 nM
- GI50 (LOX IMVI melanoma): 1870 nM
- TGI (LOX IMVI melanoma): 3280 nM
- GI50 (SR leukemia): 922 nM
- TGI (SR leukemia): 2230 nM
- GI50 (RPMI-8226 leukemia): 605 nM
- TGI (RPMI-8226 leukemia): 1520 nM
- GI50 (COLO 205 colon): 2310 nM
- TGI (COLO 205 colon): 4240 nM
- GI50 (IGROV1 ovarian): 1860 nM
- TGI (IGROV1 ovarian): 3660 nM
- GI50 (SNB-75 CNS): 1980 nM
- TGI (SNB-75 CNS): 4310 nM
- GI50 (NCI-H322M lung): 10500 nM
- TGI (NCI-H322M lung): 31000 nM
- GI50 (OVCAR-4 ovarian): 2030 nM
- TGI (OVCAR-4 ovarian): 6620 nM
- GI50 (UACC-257 melanoma): 1420 nM
- TGI (UACC-257 melanoma): 2780 nM
- GI50 (SK-MEL-2 melanoma): 1210 nM
- TGI (SK-MEL-2 melanoma): 2460 nM
- GI50 (A498 renal): 1720 nM
- TGI (A498 renal): 3140 nM
- GI50 (SW-620 colon): 1770 nM
- TGI (SW-620 colon): 3180 nM
- GI50 (OVCAR-8 ovarian): 1760 nM
- TGI (OVCAR-8 ovarian): 3310 nM
- GI50 (NCI-H522 lung): 1630 nM
- TGI (NCI-H522 lung): 3020 nM
- GI50 (K-562 leukemia): 1850 nM
- TGI (K-562 leukemia): 3400 nM
- GI50 (TK-10 renal): 2180 nM
- TGI (TK-10 renal): 5020 nM
- GI50 (SF-539 CNS): 1580 nM
- TGI (SF-539 CNS): 2950 nM
- GI50 (DU-145 prostate): 1910 nM
- TGI (DU-145 prostate): 3760 nM
- GI50 (U251 glioblastoma): 1890 nM
- TGI (U251 glioblastoma): 3440 nM
- GI50 (UO-31 renal): 2030 nM
- TGI (UO-31 renal): 4080 nM
- GI50 (KM12 colon): 1760 nM
- TGI (KM12 colon): 3230 nM
- GI50 (MALME-3M melanoma): 1960 nM
- TGI (MALME-3M melanoma): 3470 nM
- GI50 (MDA-MB-468 breast): 785 nM
- TGI (MDA-MB-468 breast): 2010 nM
- GI50 (EKVX NSCLC): 2340 nM
- TGI (EKVX NSCLC): 5570 nM
- GI50 (HOP-92 NSCLC): 1020 nM
- TGI (HOP-92 NSCLC): 2770 nM
- GI50 (SK-OV-3 ovarian): 2510 nM
- TGI (SK-OV-3 ovarian): 6710 nM
- GI50 (OVCAR-3 ovarian): 1400 nM
- TGI (OVCAR-3 ovarian): 2850 nM
- GI50 (MOLT-4 leukemia): 910 nM
- TGI (MOLT-4 leukemia): 2210 nM
- GI50 (HOP-62 NSCLC): 2450 nM
- TGI (HOP-62 NSCLC): 6360 nM
- GI50 (NCI/ADR-RES ovarian): > 44600 nM
- TGI (NCI/ADR-RES ovarian): > 78500 nM
- GI50 (T-47D breast): 1310 nM
- TGI (T-47D breast): 2990 nM
- GI50 (NCI-H460 NSCLC): 1730 nM
- TGI (NCI-H460 NSCLC): 3180 nM
- GI50 (HCT-116 colon): 1880 nM
- TGI (HCT-116 colon): 3460 nM
- GI50 (SK-MEL-28 melanoma): 2050 nM
- TGI (SK-MEL-28 melanoma): 4390 nM
- GI50 (NCI-H23 lung): 3680 nM
- TGI (NCI-H23 lung): 10000 nM
- GI50 (BT-549 breast): 1400 nM
- TGI (BT-549 breast): 2730 nM
- GI50 (MCF7 breast): 1750 nM
- TGI (MCF7 breast): 6280 nM
- GI50 (HT29 colon): 1970 nM
- TGI (HT29 colon): 3960 nM
- GI50 (CAKI-1 renal): 2640 nM
- TGI (CAKI-1 renal): 7010 nM
- GI50 (HL-60(TB) leukemia): 1940 nM
- TGI (HL-60(TB) leukemia): 3370 nM
- GI50 (HCT-15 colon): 2830 nM
- TGI (HCT-15 colon): 6990 nM
- GI50 (A549 NSCLC): 5630 nM
- TGI (A549 NSCLC): 13100 nM
- GI50 (MDA-MB-231 breast): 1670 nM
- TGI (MDA-MB-231 breast): 3310 nM
- GI50 (M14 melanoma): 2380 nM
- TGI (M14 melanoma): 5120 nM
- GI50 (CCRF-CEM leukemia): 1560 nM
- TGI (CCRF-CEM leukemia): 2920 nM
- GI50 (RXF 393 renal): 680 nM
- TGI (RXF 393 renal): 2190 nM

From PubChem BioAssay (NCI)
